Several values for one entry are separate records, joined by “and”; a condition that tells them apart may be missing. Identical values can stand only once. Toxic doses and inconclusive results are not listed.

Among the data in PubChem BioAssay AID248 (DTP/NCI, 2004) are T/C values, retold here.

The test relates to L1210 leukemia ip in BDF1 mice, survival T/C. Put plainly: NCI In Vivo Anticancer Drug Screen. Data for tumor model L1210 Leukemia (intraperitoneal) in B6D2F1 (BDF1) mice. As to conditions: endpoint: mean survival time, higher = longer survival. In outline: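 Survival endpoint. Drug-treated group vs vehicle group, expressed as T divided by C. Tumor passaged by transplantation.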

Setting [1] is: dose: 100.0 mg/kg/injection, schedule: Q01DX009 (ip), vehicle: Klucel (hydroxypropylcellulose) (HPC).
The mark [2] stands for this setting: dose: 200.0 mg/kg/injection, schedule: Q01DX009 (ip), vehicle: Klucel (hydroxypropylcellulose) (HPC).
Where [3] appears, read: dose: 400.0 mg/kg/injection, schedule: Q01DX009 (ip), vehicle: Klucel (hydroxypropylcellulose) (HPC).
Where [4] appears, read: dose: 100.0 mg/kg/injection, schedule: Q01DX009 (ip), vehicle: saline with Tween-80.
[5] abbreviates: dose: 50.0 mg/kg/injection, schedule: Q01DX009 (ip), vehicle: Klucel (hydroxypropylcellulose) (HPC).
Where [6] appears, read: dose: 100.0 mg/kg/injection, schedule: Q01DX001 (ip), vehicle: carboxymethylcellulose (CMC).
Setting [7] is: dose: 100.0 mg/kg/injection, schedule: Q04DX003 (ip), vehicle: Klucel (hydroxypropylcellulose) (HPC).
Setting [8] is: dose: 200.0 mg/kg/injection, schedule: Q01DX001 (ip), vehicle: carboxymethylcellulose (CMC).
The mark [9] stands for this setting: dose: 200.0 mg/kg/injection, schedule: Q04DX003 (ip), vehicle: Klucel (hydroxypropylcellulose) (HPC).
Where [10] appears, read: dose: 400.0 mg/kg/injection, schedule: Q01DX001 (ip), vehicle: carboxymethylcellulose (CMC).
Setting [11] is: dose: 400.0 mg/kg/injection, schedule: Q04DX003 (ip), vehicle: Klucel (hydroxypropylcellulose) (HPC).
[12] abbreviates: dose: 100.0 mg/kg/injection, schedule: Q01DX001 (ip), vehicle: Klucel (hydroxypropylcellulose) (HPC).
Where [13] appears, read: dose: 200.0 mg/kg/injection, schedule: Q01DX001 (ip), vehicle: Klucel (hydroxypropylcellulose) (HPC).
Setting [14] is: dose: 400.0 mg/kg/injection, schedule: Q01DX001 (ip), vehicle: Klucel (hydroxypropylcellulose) (HPC).

`CNC(=O)Oc1cccc(N(C)C)c1`: the T/C is 100 % of control (dose: 9.5 mg/kg/injection, schedule: Q01DX001 (ip), vehicle: other) and 98 % of control (dose: 19.0 mg/kg/injection, schedule: Q01DX001 (ip), vehicle: other).

As for `O=C(Nc1ccc(O)cc1)c1ccc([N+](=O)[O-])cc1`, the T/C is 94 % of control under setting [1], 95 % of control under setting [2] and 100 % of control under setting [3].

Consider `O=C(Nc1cccc(F)c1)Nc1ncccn1`, for which the T/C was 90 % of control under setting [4]; 86 % of control (dose: 200.0 mg/kg/injection, schedule: Q01DX009 (ip), vehicle: saline with Tween-80); 100 % of control (dose: 400.0 mg/kg/injection, schedule: Q01DX009 (ip), vehicle: saline with Tween-80).

Consider `CCOC(=O)c1[nH]cnc1/N=N/N(C)CCO`, for which the T/C is 122 % of control under setting [5]; 116 % of control (dose: 90.0 mg/kg/injection, schedule: Q01DX009 (ip), vehicle: Klucel (hydroxypropylcellulose) (HPC)); 115 % of control under setting [6]; 117 % of control under setting [1]; 109 % of control and 115 % of control under setting [7]; 152 % of control (dose: 175.0 mg/kg/injection, schedule: Q01DX009 (ip), vehicle: saline). Also, the T/C under setting [8] is 102 % of control; the T/C under setting [9] was 108 % of control and 121 % of control; the T/C under setting [10] is 107 % of control; the T/C under setting [3] was 150 % of control and 154 % of control; the T/C under setting [11] was 124 % of control; the T/C (dose: 600.0 mg/kg/injection, schedule: Q01DX009 (ip), vehicle: saline) is 154 % of control.

In the case of `NC1=NC(CCc2ccccc2)N(c2ccc(Cl)cc2)C(N)=N1` (configuration not stated), the T/C is, setting by setting: (dose: 14.0 mg/kg/injection, schedule: Q01DX009 (ip), vehicle: steriod suspending solution) 98 % of control; (dose: 24.0 mg/kg/injection, schedule: Q01DX009 (ip), vehicle: steriod suspending solution) 97 % of control; (dose: 39.0 mg/kg/injection, schedule: Q01DX009 (ip), vehicle: steriod suspending solution) 100 % of control; (dose: 65.0 mg/kg/injection, schedule: Q01DX009 (ip), vehicle: steriod suspending solution) 100 % of control.

Take `Nc1cc(Cl)[nH]c(=O)n1`: the T/C is 100 % of control (dose: 100.0 mg/kg/injection, schedule: Q01DX009 (ip), vehicle: gum acacia) and 89 % of control (dose: 200.0 mg/kg/injection, schedule: Q01DX009 (ip), vehicle: gum acacia).

In the case of `O=C1c2cccc3cccc(c23)C(=O)N1CC1CCCO1` (configuration not stated), the T/C is, setting by setting: under setting [1], 94 % of control; under setting [2], 94 % of control; under setting [3], 87 % of control.

Regarding `CCOC(=O)C(C)(CCOCc1ccccc1)NC(C)=O` (configuration not stated), the T/C (dose: 50.0 mg/kg/injection, schedule: Q01DX001 (ip), vehicle: carboxymethylcellulose (CMC)) is 94 % of control; the T/C under setting [6] is 96 % of control; the T/C under setting [8] is 100 % of control; the T/C under setting [10] is 91 % of control.

For `Cn1c(N)cc(=O)n(C)c1=O`, the T/C is, setting by setting: under setting [12], 112 % of control; under setting [13], 107 % of control; under setting [14], 109 % of control.

In the case of `NCCCCC(N)C(=O)CCl` (configuration not stated), the T/C is 110 % of control (dose: 25.0 mg/kg/injection, schedule: Q04DX002 (ip), vehicle: saline); 97 % of control (dose: 50.0 mg/kg/injection, schedule: Q04DX002 (ip), vehicle: saline); 94 % of control (dose: 100.0 mg/kg/injection, schedule: Q04DX002 (ip), vehicle: saline).

Consider `C[C@H]1CC[C@@H]2[C@@H](C)[C@H]3[C@H](C[C@H]4[C@@H]5CC=C6C[C@@H](O)CC[C@]6(C)[C@H]5C[C@H](O)[C@]34C)N2C1`, for which the T/C (dose: 100.0 mg/kg/injection, schedule: Q01DX001 (sc), vehicle: steriod suspending solution) is 100 % of control; the T/C (dose: 200.0 mg/kg/injection, schedule: Q01DX001 (sc), vehicle: steriod suspending solution) was 91 % of control; the T/C (dose: 400.0 mg/kg/injection, schedule: Q01DX001 (sc), vehicle: steriod suspending solution) is 91 % of control.

For `Cc1ccc(S(=O)(=O)OCC2C3CCC(c4ccccc43)C2COS(=O)(=O)c2ccc(C)cc2)cc1` (configuration not stated), the T/C reads like this: under setting [7], 109 % of control; under setting [9], 105 % of control; under setting [11], 88 % of control.

Regarding `CC(C)=Cc1cc(C)ccc1OC(=O)c1ccc([N+](=O)[O-])cc1`, the T/C was 102 % of control under setting [12]; 97 % of control under setting [1]; 91 % of control under setting [13]; 101 % of control under setting [2]; 103 % of control under setting [14]; 104 % of control under setting [3].

`Cc1ccc(CNCC(=O)O)cc1`: the T/C runs as follows: (dose: 50.0 mg/kg/injection, schedule: Q01DX009 (ip), vehicle: water) 102 % of control; (dose: 100.0 mg/kg/injection, schedule: Q01DX009 (ip), vehicle: water) 98 % of control; (dose: 100.0 mg/kg/injection, schedule: Q01DX Z (ip), vehicle: saline) 96 % of control; (dose: 100.0 mg/kg/injection, schedule: Q04DX003 (ip), vehicle: water) 95 % of control; (dose: 200.0 mg/kg/injection, schedule: Q01DX009 (ip), vehicle: water) 95 % of control; (dose: 200.0 mg/kg/injection, schedule: Q01DX Z (ip), vehicle: saline) 104 % of control. Besides, where the note is “dose: 200.0 mg/kg/injection, schedule: Q04DX003 (ip), vehicle: water”, the T/C was 88 % of control.

Regarding `NNC(=O)c1ccc(Br)cc1`, the T/C by setting is: (dose: 25.0 mg/kg/injection, schedule: Q01DX009 (ip), vehicle: Klucel (hydroxypropylcellulose) (HPC)) 93 % of control; under setting [5], 96 % of control; under setting [1], 104 % of control; under setting [7], 94 % of control; under setting [9], 103 % of control; under setting [11], 106 % of control.

As to `CN(C)c1ccc(/C=N/NC(=O)c2ccncc2)c(Cl)c1`, the T/C is, setting by setting: under setting [1], 96 % of control; under setting [2], 89 % of control; under setting [3], 91 % of control.

For `CCCCNC(=O)CSc1cc(Cl)c(Cl)cc1Cl`, the T/C runs as follows: (dose: 100.0 mg/kg/injection, schedule: Q01DX001 (ip), vehicle: saline with Tween-80) 91 % of control; (dose: 200.0 mg/kg/injection, schedule: Q01DX001 (ip), vehicle: saline with Tween-80) 91 % of control; (dose: 400.0 mg/kg/injection, schedule: Q01DX001 (ip), vehicle: saline with Tween-80) 95 % of control.

In the case of `CCCCCc1ccc(C(=O)O)cc1`, the T/C reads like this: (dose: 25.0 mg/kg/injection, schedule: Q01DX009 (ip), vehicle: saline with Tween-80) 103 % of control; (dose: 25.0 mg/kg/injection, schedule: Q04DX003 (ip), vehicle: saline with Tween-80) 106 % of control; (dose: 50.0 mg/kg/injection, schedule: Q01DX009 (ip), vehicle: saline with Tween-80) 98 % of control; (dose: 50.0 mg/kg/injection, schedule: Q04DX003 (ip), vehicle: saline with Tween-80) 101 % of control; under setting [4], 97 % of control; (dose: 100.0 mg/kg/injection, schedule: Q04DX003 (ip), vehicle: saline with Tween-80) 98 % of control and 102 % of control.

Take `O=C(O)c1ccccc1N=Cc1ccc[nH]1`: the T/C is, setting by setting: (dose: 100.0 mg/kg/injection, schedule: Q04DX002 (ip), vehicle: Klucel (hydroxypropylcellulose) (HPC)) 115 % of control; (dose: 200.0 mg/kg/injection, schedule: Q04DX002 (ip), vehicle: Klucel (hydroxypropylcellulose) (HPC)) 100 % of control; (dose: 400.0 mg/kg/injection, schedule: Q04DX002 (ip), vehicle: Klucel (hydroxypropylcellulose) (HPC)) 96 % of control.

`Cc1c(-c2ccccc2)nn(O)c1-c1ccccc1`: the T/C was 102 % of control under setting [5], 102 % of control under setting [1] and 94 % of control under setting [2].
